Tests used:
[1] = test system: A549-FAP tumor xenografts; assay: dynamic micro-PET imaging in A549-FAP tumor xenografts; format: in vivo; conditions: A549-FAP tumor-bearing nude mice, up to 2 h p.i.
Procedure: (§1) For the biodistribution and micro-PET imaging studies, male BALB/c nude mice (6–8 weeks) were subcutaneously inoculated with 1 × 10^7 22Rv1 or 5 × 10^6 A549-FAP cells in the right shoulder. Mice were imaged or used in the biodistribution studies when the tumor reached 5–10 mm in diameter.
Mice bearing xenografted 22Rv1 or A549FAP tumors (n = 3 per group) were anesthetized and placed in the prone position in a micro-PET scanner (Siemens, Erlangen, Germany). Dynamic PET/CT images were acquired 2 h post-injection (p.i.) with the radiotracer (5.55–11.1 MBq). The blocking experiments were performed by co-injecting 3 mg/kg of 2-PMPA for mice bearing 22Rv1 tumors or 3 mg/kg of DOTA-FAPI-04 for mice bearing A549-FAP tumors. The images were reconstructed using a three-dimensional ordered-subset expectation maximum algorithm and converted to %ID/g. Attenuation correction was performed using the unenhanced low-dose CT data. For data analysis, the regions of interest (ROIs) were manually drawn over the tumors and major organs on decay-corrected whole-body coronal images obtained using Inevon Research Workplace 4.1 software.

[2] = n-octanol/PBS partition coefficient (logD); format: physicochemical; conditions: PBS pH 7.4, ambient temperature
Procedure: An aliquot (74 kBq) of [^18F]AlF-PSMA-FAPI-01 or [^18F]AlF-PSMA-FAPI-02 was added to a centrifuge tube containing a mixture of phosphate-buffered solution (PBS, pH 7.4, 5.0 mL) and n-octanol (5.0 mL). The mixture was vigorously vortexed at ambient temperature for 5 min and then centrifuged (10,000 rpm, 5 min). Three samples (each 100 µL) from each phase underwent radioactivity measurement using a γ-counter (CAPRAC-R, Capintec, Inc., Ramsey, NJ, USA).

A549-FAP cells [3] = assay: cell uptake and blocking study in A549-FAP cells; format: cell-based; conditions: for cell uptake, blocked: +DOTA-FAPI-04 (2.3 μM)
Procedure: PSMA-positive 22Rv1 cells (purchased from Institute of Biochemistry and Cell Biology, Shanghai, China) and stably FAP-transfected A549-FAP cells (acquired using lentiviral infection) were used for the cell-based experiments. The 22Rv1 cells were cultivated in RPMI-1640 medium (Gibco) at 37 °C/5% carbon dioxide, while the A549-FAP cells were cultivated in DMEM medium. Both media were supplemented with 10% heat-inactivated fetal bovine serum (FBS) and 1% penicillin/streptomycin (Gibco). Puromycin (1 µg/mL) was also added to the media to maintain FAP expression.
Cells were seeded in 12-well plates 2 days in advance to achieve a final confluence of approximately 80–90% (4–5 × 10^5 cells/well). The medium was displaced by 1 mL fresh medium without FBS. The method of cell studies was similar to a method reported previously. For the competitive binding experiments, cells were incubated with the known radiotracers ([^18F]FAPI-42 for the FAP receptor and [^18F]AlF-PSMA-BCH for PSMA) in the presence of 7 different concentrations (10^−5–10^−11 M) of the corresponding unlabeled heterodimers or corresponding monomer and incubated for 60 min at 37 °C. In all experiments, the cells were washed twice with PBS, lysed with 1 M NaOH, and counted using a γ-counter. IC50 values were calculated by fitting the data using a nonlinear regression algorithm (implemented in SPSS). For the radioligand binding studies, the cells were incubated for 5, 15, 30, 60, or 120 min at 37 °C after the addition of the heterodimer or corresponding monomeric radiotracer radiotracers. The blocking experiments were determined by adding the corresponding competitors (4.4 μM 2-PMPA for 22Rv1 cells and 2.3 μM DOTA-FAPI-04 for A549-FAP cells). Radioactivity was measured using a γ-counter, normalized to 1 million cells (1 mio cells), and calculated as the percentage of the applied dose (%ID/1 mio cells). For the internalization experiments, the cells were incubated with the radiolabeled compound for 60 min, washed twice with 1 mL PBS, and then incubated for 10 min with 1 mL glycine HCl (1 M, pH 2.2) to detach the extracellular bound tracer. Next, the cells were washed with PBS (2.0 mL) and lysed with 1 M NaOH (1.5 mL). The radioactivity of the acid wash solution (extracellularly bound tracer) and cell lysate (internalized tracer) was assessed separately using a γ-counter. For the efflux experiments, the radioactive medium was removed after 60 min incubation and replaced with non-radioactive medium. At predetermined time points of 15, 30, 60, and 120 min, the cells were washed with 1.0 mL PBS three times and then lysed. The radioactivity of the remaining cells was assessed using a γ-counter. Each experiment was conducted three times with three or four replicates per independent experiment.

[4] = test system: 22Rv1 tumor-bearing nude mice; assay: tissue biodistribution and blocking in 22Rv1 tumor-bearing nude mice; format: in vivo; conditions: 1 h p.i.; for 22Rv1 tumor* uptake, Blocked / Kidney* uptake, Blocked: co-injected 2-PMPA 3 mg/kg
Procedure: as §1
(§2) Mice bearing 22Rv1 or A549-FAP (n = 4 in each group) tumors were euthanized 60 min after intravenous administration of each tracer (740–1480 KBq/mouse). In the blocking group, the same experiment was conducted by co-injecting 50 μg of 2-PMPA for mice bearing 22Rv1 tumors or 50 μg of DOTA-FAPI-04 for mice bearing A549-FAP tumors. The organs of interest and tumors were quickly dissected and weighed. Radioactivity was assessed using a γ-counter and calculated as the percentage injected dose per gram (%ID/g).

[5] = test system: A549-FAP tumor-bearing nude mice; assay: tissue biodistribution and blocking in A549-FAP tumor-bearing nude mice; format: in vivo; conditions: 1 h p.i.; for A549-FAP tumor uptake, Blocked / Blood uptake, Blocked / Bone uptake, Blocked / Brain uptake, Blocked / Gall bladder uptake, Blocked / Heart uptake, Blocked / Kidney uptake, Blocked / Liver uptake, Blocked / Lung uptake, Blocked / Muscle uptake, Blocked / Small intestine uptake, Blocked / Spleen uptake, Blocked / Stomach uptake, Blocked: co-injected DOTA-FAPI-04 3 mg/kg
Procedure: as §1, §2

A549-FAP cells [6] = assay: efflux in A549-FAP cells; format: cell-based; conditions: 2 h incubation
Procedure: (§3) Cells were seeded in 12-well plates 2 days in advance to achieve a final confluence of approximately 80–90% (4–5 × 10^5 cells/well). The medium was displaced by 1 mL fresh medium without FBS. The method of cell studies was similar to a method reported previously. For the competitive binding experiments, cells were incubated with the known radiotracers ([^18F]FAPI-42 for the FAP receptor and [^18F]AlF-PSMA-BCH for PSMA) in the presence of 7 different concentrations (10^−5–10^−11 M) of the corresponding unlabeled heterodimers or corresponding monomer and incubated for 60 min at 37 °C. In all experiments, the cells were washed twice with PBS, lysed with 1 M NaOH, and counted using a γ-counter. IC50 values were calculated by fitting the data using a nonlinear regression algorithm (implemented in SPSS). […] The blocking experiments were determined by adding the corresponding competitors (4.4 μM 2-PMPA for 22Rv1 cells and 2.3 μM DOTA-FAPI-04 for A549-FAP cells). Radioactivity was measured using a γ-counter, normalized to 1 million cells (1 mio cells), and calculated as the percentage of the applied dose (%ID/1 mio cells). […] The radioactivity of the acid wash solution (extracellularly bound tracer) and cell lysate (internalized tracer) was assessed separately using a γ-counter. […] The radioactivity of the remaining cells was assessed using a γ-counter. […]

22Rv1 cells = assay: efflux in 22Rv1 cells; format: cell-based; conditions: 2 h incubation
Procedure: as §3

SMILES: N#C[C@@H]1CC(F)(F)CN1C(=O)CNC(=O)c1ccnc2ccc(OCCCC(=O)NCCCC[C@H](NC(=O)CN3CCN4CCN(CC3)CC(=O)[O][Al]([18F])[O]C(=O)C4)C(=O)NCC3CCC(C(=O)N[C@H](Cc4ccc5ccccc5c4)C(=O)NCCCC[C@H](NC(=O)N[C@@H](CCC(=O)O)C(=O)O)C(=O)O)CC3)cc12 (some centres unmarked) [[^18F]AlF-PSMA-FAPI-01]
- time–activity curves (micro-PET) [1]: rapid uptake and excellent retention in tumors, as well as rapid clearance from non-target organs via the kidneys
- n-octanol/PBS distribution coefficient (logD) [2]: −2.74 ± 0.02
- cell uptake (A549-FAP cells [3]; 5 min): 8.15 ± 0.31 % ID/1 million cells
- cell uptake, blocked (A549-FAP cells [3]; 5 min): 0.67 ± 0.07 % ID/1 million cells
- cell uptake (A549-FAP cells [3]; 15 min): 16.57 ± 0.98 % ID/1 million cells
- cell uptake, blocked (A549-FAP cells [3]; 15 min): 0.71 ± 0.09 % ID/1 million cells
- cell uptake (A549-FAP cells [3]; 30 min): 23.73 ± 0.33 % ID/1 million cells
- cell uptake, blocked (A549-FAP cells [3]; 30 min): 0.77 ± 0.01 % ID/1 million cells
- cell uptake (A549-FAP cells [3]; 60 min): 30.36 ± 3.53 % ID/1 million cells
- cell uptake, blocked (A549-FAP cells [3]; 60 min): 0.83 ± 0.09 % ID/1 million cells
- cell uptake (A549-FAP cells [3]; 120 min): 28.23 ± 2.97 % ID/1 million cells
- cell uptake, blocked (A549-FAP cells [3]; 120 min): 1.16 ± 0.06 % ID/1 million cells
- 22Rv1 tumor* uptake [4]: 12.37 ± 0.40 %ID/g
- Kidney* uptake [4]: 23.4 ± 9.22 %ID/g
- 22Rv1 tumor* uptake, Blocked [4]: 5.03 ± 0.75 %ID/g
- Kidney* uptake, Blocked [4]: 2.85 ± 0.38 %ID/g
- A549-FAP tumor uptake [5]: 6.40 ± 0.32 %ID/g
- Blood uptake [5]: 2.36 ± 0.60 %ID/g
- Bone uptake [5]: 4.09 ± 0.76 %ID/g
- Brain uptake [5]: 0.16 ± 0.03 %ID/g
- Gall bladder uptake [5]: 2.02 ± 0.40 %ID/g
- Heart uptake [5]: 1.56 ± 0.14 %ID/g
- Kidney uptake [5]: 23.88 ± 3.01 %ID/g
- Liver uptake [5]: 1.38 ± 0.11 %ID/g
- Lung uptake [5]: 1.82 ± 0.18 %ID/g
- Muscle uptake [5]: 2.18 ± 0.48 %ID/g
- Small intestine uptake [5]: 1.23 ± 0.21 %ID/g
- Spleen uptake [5]: 0.99 ± 0.17 %ID/g
- Stomach uptake [5]: 1.03 ± 0.13 %ID/g
- A549-FAP tumor uptake, Blocked [5]: 1.38 ± 0.77 %ID/g
- Blood uptake, Blocked [5]: 0.88 ± 0.62 %ID/g
- Bone uptake, Blocked [5]: 1.53 ± 0.21 %ID/g
- Brain uptake, Blocked [5]: 0.09 ± 0.03 %ID/g
- Gall bladder uptake, Blocked [5]: 1.67 ± 0.32 %ID/g
- Heart uptake, Blocked [5]: 0.41 ± 0.02 %ID/g
- Kidney uptake, Blocked [5]: 28.65 ± 6.05 %ID/g
- Liver uptake, Blocked [5]: 0.79 ± 0.37 %ID/g
- Lung uptake, Blocked [5]: 1.66 ± 0.33 %ID/g
- Muscle uptake, Blocked [5]: 0.32 ± 0.05 %ID/g
- Small intestine uptake, Blocked [5]: 1.04 ± 0.53 %ID/g
- Spleen uptake, Blocked [5]: 0.67 ± 0.20 %ID/g
- Stomach uptake, Blocked [5]: 0.91 ± 0.43 %ID/g

SMILES: N#C[C@@H]1CC(F)(F)CN1C(=O)CNC(=O)c1ccnc2ccc(OCCCN3CCN(C(=O)CCC(=O)NCCCC[C@H](NC(=O)CN4CCN5CCN(CC4)CC(=O)[O][Al]([18F])[O]C(=O)C5)C(=O)NC[C@H]4CC[C@H](C(=O)N[C@H](Cc5ccc6ccccc6c5)C(=O)NCCCC[C@H](NC(=O)N[C@@H](CCC(=O)O)C(=O)O)C(=O)O)CC4)CC3)cc12 [[^18F]AlF-PSMA-FAPI-02]
- time–activity curves (micro-PET) [1]: rapid uptake and excellent retention in tumors, as well as rapid clearance from non-target organs via the kidneys
- n-octanol/PBS distribution coefficient (logD) [2]: −2.04 ± 0.04
- cell efflux (A549-FAP cells [6]): lower cellular efflux
- cell uptake (A549-FAP cells [3]; 5 min): 11.66 ± 0.39 % ID/1 million cells
- cell uptake, blocked (A549-FAP cells [3]; 5 min): 1.28 ± 0.08 % ID/1 million cells
- cell uptake (A549-FAP cells [3]; 15 min): 17.03 ± 0.85 % ID/1 million cells
- cell uptake, blocked (A549-FAP cells [3]; 15 min): 1.29 ± 0.38 % ID/1 million cells
- cell uptake (A549-FAP cells [3]; 30 min): 23.26 ± 1.59 % ID/1 million cells
- cell uptake, blocked (A549-FAP cells [3]; 30 min): 1.31 ± 0.16 % ID/1 million cells
- cell uptake (A549-FAP cells [3]; 60 min): 27.02 ± 2.21 % ID/1 million cells
- cell uptake, blocked (A549-FAP cells [3]; 60 min): 1.59 ± 0.65 % ID/1 million cells
- cell uptake (A549-FAP cells [3]; 120 min): 32.55 ± 1.42 % ID/1 million cells
- cell uptake, blocked (A549-FAP cells [3]; 120 min): 1.71 ± 0.23 % ID/1 million cells
- cell efflux (22Rv1 cells): lower cellular efflux
- 22Rv1 tumor* uptake [4]: 12.85 ± 2.43 %ID/g
- Kidney* uptake [4]: 27.0 ± 11.9 %ID/g
- 22Rv1 tumor* uptake, Blocked [4]: 6.85 ± 1.53 %ID/g
- Kidney* uptake, Blocked [4]: 2.94 ± 0.35 %ID/g
- A549-FAP tumor uptake [5]: 6.47 ± 0.76 %ID/g
- Blood uptake [5]: 1.98 ± 0.46 %ID/g
- Bone uptake [5]: 5.53 ± 0.18 %ID/g
- Brain uptake [5]: 0.11 ± 0.03 %ID/g
- Gall bladder uptake [5]: 2.23 ± 1.07 %ID/g
- Heart uptake [5]: 0.84 ± 0.17 %ID/g
- Kidney uptake [5]: 23.10 ± 7.91 %ID/g
- Liver uptake [5]: 0.81 ± 0.22 %ID/g
- Lung uptake [5]: 1.37 ± 0.22 %ID/g
- Muscle uptake [5]: 1.35 ± 0.36 %ID/g
- Small intestine uptake [5]: 0.84 ± 0.33 %ID/g
- Spleen uptake [5]: 0.51 ± 0.16 %ID/g
- Stomach uptake [5]: 0.83 ± 0.42 %ID/g
- A549-FAP tumor uptake, Blocked [5]: 1.11 ± 0.88 %ID/g
- Blood uptake, Blocked [5]: 0.57 ± 0.19 %ID/g
- Bone uptake, Blocked [5]: 3.83 ± 0.02 %ID/g
- Brain uptake, Blocked [5]: 0.07 ± 0.03 %ID/g
- Gall bladder uptake, Blocked [5]: 1.39 ± 0.20 %ID/g
- Heart uptake, Blocked [5]: 0.28 ± 0.07 %ID/g
- Kidney uptake, Blocked [5]: 26.70 ± 10.80 %ID/g
- Liver uptake, Blocked [5]: 0.41 ± 0.12 %ID/g
- Lung uptake, Blocked [5]: 0.90 ± 0.24 %ID/g
- Muscle uptake, Blocked [5]: 0.85 ± 0.39 %ID/g
- Small intestine uptake, Blocked [5]: 0.55 ± 0.29 %ID/g
- Spleen uptake, Blocked [5]: 0.30 ± 0.03 %ID/g
- Stomach uptake, Blocked [5]: 0.37 ± 0.06 %ID/g

Source: publication PMC8949503, “Radiosynthesis and Preclinical Evaluation of Bispecific PSMA/FAP Heterodimers for Tumor Imaging” (Pharmaceuticals, 2022)
